Measurements as given in PMC3761975 (Current drug safety, 2010).
pIC50: −log10 of the molar value. Read-outs that look alike come from different tables or passages of the source.

Columns and labels:
CYP3A4 [1] = conditions: cited from earlier work
CYP2C9, CYP3A4 = assay: in vitro; conditions: human, pH 7.5
CYP1A2 [2] = target: T1, CYP1A2 (Homo sapiens, UniProt P05177); assay: CYP1A2 fluorometric microtiter plate inhibition assay
T1 sequence (P05177 1-516): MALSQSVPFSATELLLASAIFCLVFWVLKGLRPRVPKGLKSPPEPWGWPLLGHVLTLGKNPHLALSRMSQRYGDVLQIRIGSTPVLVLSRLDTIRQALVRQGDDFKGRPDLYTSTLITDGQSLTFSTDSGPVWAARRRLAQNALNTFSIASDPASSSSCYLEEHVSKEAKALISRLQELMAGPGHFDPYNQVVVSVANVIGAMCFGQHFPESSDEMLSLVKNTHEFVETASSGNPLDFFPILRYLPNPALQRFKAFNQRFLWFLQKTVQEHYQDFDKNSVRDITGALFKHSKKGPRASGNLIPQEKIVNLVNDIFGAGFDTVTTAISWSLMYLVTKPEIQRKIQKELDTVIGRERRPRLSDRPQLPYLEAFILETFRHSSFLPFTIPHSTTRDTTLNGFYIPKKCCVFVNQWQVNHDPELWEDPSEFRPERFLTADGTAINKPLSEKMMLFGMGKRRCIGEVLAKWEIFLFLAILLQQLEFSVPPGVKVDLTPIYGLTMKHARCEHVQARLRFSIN

CYP2C9 [3] = target: T2, CYP2C9 (Homo sapiens, UniProt P11712); assay: CYP2C9 fluorometric microtiter plate inhibition assay
CYP2D6 [4] = target: T3, CYP2D6 (Homo sapiens, UniProt P10635); assay: CYP2D6 fluorometric microtiter plate inhibition assay
CYP3A4 [5] = target: T4, CYP3A4 (Homo sapiens, UniProt P08684); assay: CYP3A4 fluorometric microtiter plate inhibition assay
[6] = test system: CYP1A2, CYP2C9, CYP2D6, CYP3A4; assay: CYP isozyme bioassays, results stated across several isozymes; conditions: human, pH 7.5
CYP1A2 [7] = target: T1, CYP1A2; conditions: recombinant enzyme
CYP3A4 [8] = target: T4, CYP3A4; conditions: recombinant enzyme
CYP2C9 [9] = target: T2, CYP2C9; conditions: recombinant enzyme
CYP2D6 [10] = target: T3, CYP2D6; conditions: recombinant enzyme
CYP 1A2 = conditions: cited from earlier work
CYP 2D6 = conditions: read-out: Literature IC50, CYP 2D6; published limits; cited from earlier work
CYP 2C9 = conditions: read-out: Literature IC50, CYP 2C9; published limits; cited from earlier work

T4 sequence (P08684 whole entry): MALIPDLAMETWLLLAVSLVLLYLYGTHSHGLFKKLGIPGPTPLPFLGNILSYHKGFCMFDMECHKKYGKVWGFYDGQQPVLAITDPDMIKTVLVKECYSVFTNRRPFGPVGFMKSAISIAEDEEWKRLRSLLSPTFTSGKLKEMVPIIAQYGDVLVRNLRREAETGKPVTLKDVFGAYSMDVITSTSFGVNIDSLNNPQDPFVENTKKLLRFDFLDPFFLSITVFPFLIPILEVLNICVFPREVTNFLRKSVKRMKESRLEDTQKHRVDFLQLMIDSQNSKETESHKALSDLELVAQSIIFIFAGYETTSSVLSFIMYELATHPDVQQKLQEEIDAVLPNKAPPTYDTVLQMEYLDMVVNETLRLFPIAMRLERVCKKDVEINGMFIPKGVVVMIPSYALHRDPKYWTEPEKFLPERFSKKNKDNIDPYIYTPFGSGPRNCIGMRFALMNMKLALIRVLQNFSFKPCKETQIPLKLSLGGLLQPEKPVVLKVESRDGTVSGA
T2 sequence (P11712 whole entry): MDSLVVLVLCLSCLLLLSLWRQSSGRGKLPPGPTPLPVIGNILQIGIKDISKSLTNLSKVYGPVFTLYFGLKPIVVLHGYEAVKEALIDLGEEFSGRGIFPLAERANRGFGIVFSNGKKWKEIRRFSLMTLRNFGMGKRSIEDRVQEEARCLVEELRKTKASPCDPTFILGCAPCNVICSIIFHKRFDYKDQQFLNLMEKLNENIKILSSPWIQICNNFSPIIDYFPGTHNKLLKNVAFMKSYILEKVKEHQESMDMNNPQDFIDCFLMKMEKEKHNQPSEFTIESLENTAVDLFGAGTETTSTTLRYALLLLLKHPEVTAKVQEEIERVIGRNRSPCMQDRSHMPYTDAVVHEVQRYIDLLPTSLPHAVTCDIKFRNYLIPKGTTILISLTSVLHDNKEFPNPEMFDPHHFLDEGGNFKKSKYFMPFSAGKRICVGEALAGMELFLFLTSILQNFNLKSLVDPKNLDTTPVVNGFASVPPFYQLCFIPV
T3 sequence (P10635 whole entry): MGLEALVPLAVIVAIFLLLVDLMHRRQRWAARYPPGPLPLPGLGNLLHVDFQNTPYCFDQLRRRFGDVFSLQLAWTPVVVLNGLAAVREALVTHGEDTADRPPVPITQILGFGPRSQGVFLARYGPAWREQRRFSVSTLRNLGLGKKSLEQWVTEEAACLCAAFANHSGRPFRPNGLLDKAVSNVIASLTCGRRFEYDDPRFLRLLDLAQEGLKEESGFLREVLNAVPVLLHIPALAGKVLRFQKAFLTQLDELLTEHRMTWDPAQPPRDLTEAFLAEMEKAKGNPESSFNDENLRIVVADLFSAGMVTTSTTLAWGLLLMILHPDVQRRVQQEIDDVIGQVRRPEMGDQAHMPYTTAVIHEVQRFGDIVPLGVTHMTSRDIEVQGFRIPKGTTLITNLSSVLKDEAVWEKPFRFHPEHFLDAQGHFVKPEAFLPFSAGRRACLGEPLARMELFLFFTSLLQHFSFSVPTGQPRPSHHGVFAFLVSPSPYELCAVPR

pIC50 (CYP1A2 [2]) | pIC50 (CYP2C9 [3]) | pIC50 (CYP2D6 [4]) | pIC50 (CYP3A4 [5]) | SMILES | other results
 |  |  |  | CC(=O)O[C@@H]1C[C@@]23C[C@@]24CC[C@H](O[C@@H]2OC[C@@H](O)[C@H](O)[C@H]2O)C(C)(C)[C@@H]4CC[C@H]3[C@]2(C)C[C@@H]3O[C@]4(C[C@@H](C)[C@@H]3[C@@]12C)OC[C@@]1(C)O[C@@H]41 [26-deoxyactein] | pIC50 (CYP3A4 [1]; read-out: IC50 for CYP3A4 inhibition, Tsukamoto et al.): 4.00
5.14 | 5.08 | 5.05 | 5.01 | COc1cc(/C=C/C(=O)O[C@H](C(=O)O)[C@](O)(Cc2ccc(O)c(O)c2)C(=O)O)ccc1O [CAA, Cimicifugic acid A] | pIC50 [6]: 4.90 to 5.74
5.13 | 4.90 | 4.90 | 5.01 | COc1ccc(/C=C/C(=O)O[C@H](C(=O)O)[C@](O)(Cc2ccc(O)c(O)c2)C(=O)O)cc1O [CAB, Cimicifugic acid B] | pIC50 [6]: 4.90 to 5.74
 |  |  |  | CC(=O)O[C@@H]1C[C@@]23C[C@@]24CC[C@H](O[C@@H]2OC[C@@H](O)[C@H](O)[C@H]2O)C(C)(C)[C@@H]4CC[C@H]3[C@]2(C)C[C@@H]3O[C@@]4(C[C@@H](C)[C@@H]3[C@@]12C)OC[C@@]1(C)O[C@@H]41 [Deoyxactein, 23-epi-26-deoxyactein] | pIC50 (CYP1A2 [7]): < 4.00; pIC50 (CYP3A4 [8]): 4.54; pIC50 (CYP2C9 [9]): 4.59; pIC50 (CYP2D6 [10]): 4.00
5.74 | 5.15 | 5.27 | 5.14 | O=C(/C=C/c1ccc(O)c(O)c1)O[C@H](C(=O)O)[C@](O)(Cc1ccc(O)c(O)c1)C(=O)O [Fukinolic acid, fukinolic acid] | pIC50 [6]: 4.90 to 5.74
 |  |  |  | Oc1ccc(/C=C/c2cc(O)cc(O)c2)cc1 [resveratrol] | pIC50 (CYP 1A2; read-out: Inhibitory IC50 in CYP 1A2): 5.72

SMILES | pIC50 (CYP1A2 [2]) | pIC50 (CYP2C9 [3]) | pIC50 (CYP2D6 [4]) | pIC50 (CYP3A4 [5]) | other results
CC(=O)O[C@@H]1C[C@@]23C[C@@]24CC[C@H](O[C@@H]2OC[C@@H](O)[C@H](O)[C@H]2O)C(C)(C)[C@@H]4CC[C@H]3[C@]2(C)C[C@@H]3O[C@]4(C[C@@H](C)[C@@H]3[C@@]12C)O[C@H](O)[C@@]1(C)O[C@@H]41 [Actein, actein] | < 4.00 | 4.60 | 4.29 | 4.45 | pIC50 (CYP2C9, CYP3A4): 4.47 to 4.77
